The results in this text go back to article PMC9190012, “Heparin activation of protein Z-dependent protease inhibitor (ZPI) allosterically blocks protein Z activation through an extended heparin-binding site” (The Journal of Biological Chemistry, 2022).

One assay deals with T1, NBD-ZPI (Homo sapiens, UniProt Q9UK55, C190A/C285S/K260C).
T1 construct: made in house; host or cells: Escherichia coli
T1 sequence (Q9UK55 22-444 C190A/K260C/C285S): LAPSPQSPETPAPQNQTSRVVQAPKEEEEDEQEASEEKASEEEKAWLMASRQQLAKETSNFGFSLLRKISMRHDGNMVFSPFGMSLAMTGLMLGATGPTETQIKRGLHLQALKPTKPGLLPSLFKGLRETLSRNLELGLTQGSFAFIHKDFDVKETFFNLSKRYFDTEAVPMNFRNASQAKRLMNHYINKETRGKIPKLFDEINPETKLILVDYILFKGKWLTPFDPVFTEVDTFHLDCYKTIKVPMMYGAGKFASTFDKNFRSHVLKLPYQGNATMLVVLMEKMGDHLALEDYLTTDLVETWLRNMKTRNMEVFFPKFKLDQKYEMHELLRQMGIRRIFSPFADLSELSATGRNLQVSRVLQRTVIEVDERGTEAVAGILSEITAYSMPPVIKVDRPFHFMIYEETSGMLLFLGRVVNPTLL
Briefly: Competitive binding titrations of NBD-ZPI–PZ complex with heparins (quenching of NBD fluorescence). As to conditions: competitive titration of NBD-ZPI–PZ complex (50 nM ZPI/62 nM PZ), 0.1 M NaCl buffer; read-out: ZPI–heparin KD,H. Here is the method: Equilibrium binding of heparin to NBD-ZPI was measured by competitive binding titrations in which heparins of various lengths were titrated into NBD-ZPI (50 nM) complexed with a molar excess of PZ (62 nM) in a lower ionic strength buffer (0.1 M NaCl) and heparin binding followed by the quenching of NBD-ZPI–PZ complex fluorescence. Titrations were computer fit by the competitive binding equation, ΔFmax−ΔFobs/ΔFmax=Fobs−F∞/F0−F∞=[ZPI]0+[PZ]0+KD,PZ×(1+[H]0/KD,H)−([ZPI]0+[PZ]0+KD,PZ×(1+[H]0/KD,H))^2−4×[ZPI]0×[PZ]0/[ZPI]0+[PZ]0+KD,PZ−([ZPI]0+[PZ]0+KD,PZ)^2−4×[ZPI]0×[PZ]0
in which ΔFobs is the observed change in fluorescence of PZ complexed and uncomplexed NBD-ZPI before (Fo) and after heparin addition (Fobs), ΔFmax is the maximal fluorescence change upon reaching the end point fluorescence of NBD-ZPI after complete dissociation of PZ (F∞), [ZPI]o, [PZ]o, and [H]o are total concentrations of NBD-ZPI, PZ, and heparin, respectively, and KD,PZ and KD,H are dissociation constants for the NBD-ZPI–PZ and the NBD-ZPI–heparin interactions, respectively. […] In fitting data to the aforementioned equation, KD,PZ was fixed at the value determined by titration of NBD-ZPI with PZ in the absence of heparin, and KD,H was the fitted parameter.

Assay [1] has as its target T2, helix H site mutant ZPI (K260A/R263A/R305A/K308A/R310A) (Homo sapiens, UniProt Q9UK55, K281A/K329A/R284A/R326A/R331A).
T2 construct: made in house; host or cells: Escherichia coli
T2 sequence (Q9UK55 22-444 K281A/R284A/R326A/K329A/R331A): T1 sequence (Q9UK55 22-444 C190A/K260C/C285S) with A169C, C239K, K260A, R263A, S264C, R305A, K308A, R310A
The assay is described as follows: Direct heparin binding titrations monitored by intrinsic protein fluorescence quenching. The conditions noted are these: 200 nM helix H site mutant ZPI. Here is the method: (§1) Fluorescence emission spectra of NBD-ZPI (50–100 nM) were measured in the absence or the presence of PZ and heparin in 20 mM Tris buffer (pH 7.4), 0.2 M NaCl, 0.1% PEG 8000, 1 mg/ml bovine serum albumin (BSA), and 2.5 mM CaCl2 with an SLM 8000 spectrofluorometer with excitation at 480 nm over the emission range of 500 to 600 nm. Intrinsic protein fluorescence of WT and mutant ZPIs (200 nM to 1 μM) was measured in the same buffer without BSA, with excitation at 280 nm over the emission range of 300 to 400 nm. Emission was monitored in 5-nm steps with 5 to 10 s of integrations per step. Spectra were obtained in triplicate and averaged. Buffer, buffer plus PZ, or buffer plus heparin background spectra were subtracted, and dilution corrections were made for added PZ or heparin (<10%). Direct equilibrium binding of heparin to ZPI was measured by titrations of unlabeled WT and variant ZPIs (0.2–1 μM) with heparin monitored by the quenching of intrinsic protein fluorescence accompanying heparin binding at excitation and emission wavelengths of 280 and 340 nm, respectively. Titrations were computer fit by the aforementioned quadratic binding equation with [H]o replacing [PZ]o and KD,H replacing KD,PZapp.

The target of assay [2] is T3, helix C site mutant ZPI (K104A/R105A/K113A/K116A) (Homo sapiens, UniProt Q9UK55, K125A/K134A/K137A/R126A).
T3 construct: made in house; host or cells: Escherichia coli
T3 sequence (Q9UK55 22-444 K125A/R126A/K134A/K137A): T1 sequence (Q9UK55 22-444 C190A/K260C/C285S) with K104A, R105A, K113A, K116A, A169C, C239K, S264C
The description is as above. As to conditions: 1 μM helix C site mutant ZPI; quenching end point fixed at WT. Here is the method: as §1

SMILES strings stand for the structures. Residue numbers refer to the chain shown, from its start.

For the compound `CO[C@H]1O[C@H](COS(=O)(=O)O)[C@@H](O[C@@H]2O[C@@H](C(=O)O)[C@@H](O[C@H]3O[C@H](COS(=O)(=O)O)[C@@H](O[C@@H]4O[C@H](C(=O)O)[C@@H](O[C@H]5O[C@H](COS(=O)(=O)O)[C@@H](O)[C@H](O)[C@H]5NS(=O)(=O)O)[C@H](O)[C@H]4O)[C@H](OS(=O)(=O)O)[C@H]3NS(=O)(=O)O)[C@H](O)[C@H]2OS(=O)(=O)O)[C@H](O)[C@H]1NS(=O)(=O)O` [H5, fondaparinux], the Kd on NBD-ZPI came to 32.4 ± 1.9 µM; in assay [1], 142 ± 42 µM; in assay [2] it was 1900 ± 200 µM.
